Source: patent US8815499B2, “In situ detoxification of fermentation inhibitors with reducing agents” (priority 2009, dated 2014)
Read-outs that look alike come from different tables or passages of the source.

Legend:
[1] = system: yeast Saccharomyces cerevisiae; experiment: Fermentation of sugar solution with model inhibitor coniferyl aldehyde; details: for viability at 10000 µM: Saccharomyces cerevisiae, read-out: Viable cells
Experimental: A sugar solution (glucose 18 g/L, mannose 14 g/L) with a coniferyl aldehyde concentration of 2.5 mM was prepared. Half of the solution was treated with 10 mM of sodium dithionite and the rest of the solution was left untreated as a reference. Fermentation was performed with the yeast Saccharomyces cerevisiae as described in the previous Examples.

[2] = system: yeast Saccharomyces cerevisiae; details: for Ethanol concentration / Productivity / Yield: 15.0 mM; for viability at 10000 µM: Saccharomyces cerevisiae, read-out: Viable cells; for Fermentability (glucose consumption): acid spruce hydrolysate
Experimental: A spruce slurry was prepared an subjected to acidic hydrolysis as described in Example 6. […] Sodium dithionite was added to different samples to concentrations of 2.5, 5, 7.5, 10, 12.5, and 15 mM. The treatments were performed at 21° C. for 5 min with stirring. In addition, treatments with 0.1% (7.9 mM) and 1% (79.3 mM) sodium sulphite were performed. […] Furthermore, a sugar solution (glucose 18 g/L, mannose 14 g/L) was prepared to evaluate if the effect of the sodium dithionite treatment was due to an effect on the hydrolysate or the ethanolic fermentation with yeast. Half of the sugar solution was treated with 10 mM sodium dithionite, whereas the rest was left untreated as a reference. The volumes of treated and untreated samples were equalized with water and the pH was adjusted to pH 5.5 prior to the fermentation. Fermentation was performed with the yeast Saccharomyces cerevisiae as described in the previous Examples.
Spruce hydrolysate samples were prepared as in Example 6.
Two samples were treated with DTT to 2 and 20 mM, respectively, two samples were treated with ascorbic acid to 10 and 100 mM, respectively and two samples were treated with glutathione to 1 and 10 mM, respectively.
The treatment time was 3 h for all samples and fermentation was performed as described in the previous Examples.

[3] = system: yeast Saccharomyces cerevisiae; experiment: Simultaneous saccharification and fermentation (SSF) of sugarcane bagass slurry; type: cell-based; details: 7.5 and 10 mM, FIG. 9
Experimental: SSF experiments were also performed with sugarcane bagass slurries. […] Reducing agents, dithionite and sulphite, respectively, were added 10 min prior to inoculum in concentrations of studied 7.5 and 10 mM. The ethanol concentration was measured after 13 and 45 hours according to the protocol described in Example 1.

[4] = acid spruce hydrolysate, 2.5-15 mM, Table 4
[5] = Fermentation of sugar solution treated with sodium dithionite; type: cell-based; details: Saccharomyces cerevisiae, Saccharomyces cerevisiae yeast cells in fermentation, read-out: Viable cells
[6] = system: yeast Saccharomyces cerevisiae; experiment: Simultaneous saccharification and fermentation (SSF) of spruce slurry; type: cell-based; details: for Ethanol concentration: after 70 hours
Experimental: Addition of sodium dithionite and sodium sulphite was tested in an SSF process. Spruce was pretreated as described in Example 1 above. The spruce slurry was adjusted to pH 5.4 with a 5 M solution of sodium hydroxide. Ten 250-mL shake flasks equipped with magnetic stirrer bars were filled with 100 g of spruce slurry. Sodium dithionite or sodium sulphite was added to the slurries to final concentrations of 7.5 and 10 mM. The additions were performed at room temperature (23° C.) for 10 min with stirring. Duplicate experiments were made. Cellulase and cellobiase preparations were prepared and added to the slurry using the enzyme activity loadings as described in Example 1 above. Further, the yeast inoculum was prepared according to Example 1 above. Inoculums were added to give a start concentration of 2.0 g/L (cell dry weight) in every flask. No source of extra nutrients was added. For comparison, two flasks with spruce slurry to which no reducing agents had been added were included in the experiment. The flasks were incubated at 35° C. for 69 h in a water bath with magnetic stirring. The flasks were sealed with Parafilm (Pechiney Plastic Packaging Company, Chicago, Ill., USA) to prevent evaporation of ethanol. Samples were withdrawn for analysis of ethanol according to Example 1 above.
A spruce slurry was prepared according to Examples 1 and 2 above. Different flasks were filled with 100 g each of the spruce slurry and were subjected to a SSF process according to Example 2 above, but with different amounts of dithionite and sulphite added. The produced ethanol was monitored during the fermentation. […]

[7] = system: baker's yeast (Saccharomyces cerevisiae); type: cell-based; details: for Glucose consumption rates and amounts of ethanol produced: FIGS. 1 and 2
Experimental: The pH of the sugarcane bagass and spruce hydrolysates were adjusted to 5.5 with a 5 M solution of sodium hydroxide. The conditioning of each hydrolysate was performed in eight 100-mL glass vessels equipped with magnetic stirrer bars. 26 mL hydrolysate was added to all vessels, and the vessels were placed on a magnetic stirrer plate (IKA-Werke, Staufen, Germany). Sodium dithionite (chemical grade; >87%, Merck, Darmstadt, Germany) was added to hydrolysates in the concentrations 5 and 10 mM. Additions of sodium sulphite to 5 and 10 mM were also performed. The additions were made at room temperature (23° C.) and the samples were kept for 10 min with stirring. The experiments were performed in duplicates.
The efficiency of the additions of the reducing agents was compared with alkali detoxification.
Ethanol measurements were performed by using an enzymatic kit (Ethanol UV-method, Boehringer Mannheim GmbH, Mannheim, Germany). Fermentation experiments were performed to evaluate the effectiveness of the additions and treatments. For comparison, untreated hydrolysates were included in the fermentation experiments as well as reference fermentations of sugar-based medium with an amount of fermentable sugars (i.e. glucose and mannose) corresponding to that in the hydrolysate samples. The fermentations were carried out using baker's yeast (Saccharomyces cerevisiae) (Jästbolaget AB, Rotebro, Sweden). The yeast inoculum was prepared in 750-mL cotton-plugged shake flasks with 300 mL YEPD medium ([…], 2% D-glucose). The flasks were inoculated and incubated with agitation at 30° C. for approximately 12 h. The cells were harvested in the late exponential growth phase by centrifugation (Hermla Z206A, Hermle Labortechnik GmbH, Wehingen, Germany) at 1,500 g for 5 min. The cells were resuspended in an appropriate amount of sterile water to achieve an inoculum consisting of 2.0 g/L (cell dry weight) in all fermentation vessels. The fermentation was carried out in 14 25-mL glass flasks equipped with magnets for stirring and sealed with rubber plugs pierced with cannulas for letting out carbon dioxide. The hydrolysate samples (23.75 mL), or alternatively the sugar solution for reference fermentations, were added to the fermentation flasks along with 0.5 mL of a nutrient solution (150 g/L yeast extract, 75 g/L (NH4)2HPO4, 3.75 g/L MgSO4.7 H2O, 238.2 g/L NaH2PO4.H2O), and 0.75 mL of yeast inoculum. The flasks were incubated at 30° C. in a water bath with magnetic stirring (IKA-Werke). Samples for measurement of sugars and ethanol were withdrawn during the fermentation. The glucose levels during the fermentation were estimated by using a glucometer (Glucometer Elite XL, Bayer AG, Leverkusen, Germany).

[8] = bagass hydrolysate, 6 h fermentation, 10 mM
[9] = spruce hydrolysate, 14 h fermentation, 10 mM

With O=S([O-])S(=O)[O-].[Na+].[Na+] [Dithionite, Sodium dithionite] the viability at 10000 µM ([1]; 2.25 h) was 76.7%, the viability at 10000 µM ([1]; 7 h) was 75 ± 8% and the Glucose consumption rate ([1]; sugar solution with coniferyl aldehyde (2.5 mM), sodium dithionite 10 mM, FIG. 12) was “much higher”. The Ethanol concentration ([2]; 2.75 h) was 5.07 g/L, the Productivity ([2]; 2.75 h) was 1.84 g EtOH × L^−1 × h^−1 and the Yield ([2]; 2.75 h) was 0.37 g EtOH/g consumed glucose and mannose. For the same molecule, the Ethanol concentration ([2]; 4.25 h) was 9.81 g/L, the Productivity ([2]; 4.25 h) was 2.31 g EtOH × L^−1 × h^−1 and the Yield ([2]; 4.25 h) was 0.44 g EtOH/g consumed glucose and mannose. For the same molecule, the Ethanol concentration ([2]; 6.25 h) was 14.59 g/L, the Productivity ([2]; 6.25 h) was 2.33 g EtOH × L^−1 × h^−1 and the Yield ([2]; 6.25 h) was 0.47 g EtOH/g consumed glucose and mannose. The Ethanol concentration ([2]; 9.25 h) was 15.47 g/L, the Productivity ([2]; 9.25 h) was 1.67 g EtOH × L^−1 × h^−1 and the Yield ([2]; 9.25 h) was 0.49 g EtOH/g consumed glucose and mannose. For the same molecule, the viability at 10000 µM ([2]; 2.25 h) was 91%, the viability at 10000 µM ([2]; 7 h) was 96.7 ± 2.5% and the “Fermentability (glucose consumption)” value ([2]; 15 mM, FIG. 11) was “fermented about as well as the NH4OH treated sample and the plain sugar solution”. The “Fermentability (glucose consumption)” value ([2]; 2.5-15 mM, FIG. 10) was “improved fermentability”, the “Fermentability (ethanol production after 13 and 45 hours)” value [3] was “improved fermentability” and the Degradation of monosaccharide [4] was “No significant degradation”. The viability at 2.25 h, 10 mM ([5]; pH 5.5, fermentation time 2.25 h) was 80.8 ± 4.5%, the viability at 7 h, 10 mM ([5]; pH 5.5, fermentation time 7 h) was 84.3 ± 2.9% and the Ethanol concentration ([6]; 2.5 mM) was “about 10 g/L”. The Ethanol concentration ([6]; 5 mM) was 35 to 40 g/L, the Ethanol concentration ([6]; 7.5 mM) was “highest ethanol production” and the “Time after which ethanol formation leveled off” value ([6]; 10 mM, FIG. 5) was “about 45 h”. The “Improvement of ethanol production, dithionite versus sulphite” value ([6]; 10 mM, FIG. 8) was “better improvement than the addition of sulphite”, the Ethanol concentration ([6]; 10 mM) was “highest ethanol production” and the Ethanol concentration ([6]; 15 mM) was “highest ethanol production”. For the same molecule, the Ethanol concentration ([6]; 20 mM) was 35 to 40 g/L, the Ethanol concentration ([6]; 30 mM) was “about 30 g/L” and the “Ethanol production compared to the untreated hydrolysate” value ([6]; 7.5 and 10 mM, FIG. 5) was “higher ethanol production”. For the same molecule, the Balanced ethanol yield [7, 8] was 0.28 g EtOH/Σglucose & mannose prior to detoxification, the Productivity [7, 8] was 3.9 g EtOH × L^−1 × h^−1 and the Yield [7, 8] was 0.34 g EtOH/g consumed glucose & mannose. The Ethanol production ([7]; bagass hydrolysate, 6 h fermentation, FIG. 4) was “high ethanol production”, the “Glucose consumption rates and amounts of ethanol produced” value ([7]; spruce hydrolysate, 5 mM) was “substantial improvement” and the “Glucose consumption rates and amounts of ethanol produced” value ([7]; spruce hydrolysate, 10 mM) was “comparable to those of the reference fermentation”. For the same molecule, the Balanced ethanol yield [7, 9] was 0.34 g EtOH/Σglucose & mannose prior to detoxification, the Productivity [7, 9] was 2.5 g EtOH × L^−1 × h^−1 and the Yield [7, 9] was 0.37 g EtOH/g consumed glucose & mannose.
